From PMC10819243 (Pharmaceutics, 2024)
Like-named read-outs stand apart in the source and are kept apart here.

Key:
HeLa [1] = conditions: most active derivatives published earlier; read-out: Cell Line, IC50 [ μM] HeLa; cited from earlier work
MCF-7 [2] = conditions: most active derivatives published earlier; read-out: Cell Line, IC50 [ μM] MCF-7; cited from earlier work
KB [3] = conditions: most active derivatives published earlier; read-out: Cell Line, IC50 [ μM] KB; cited from earlier work
HeLa [4] = assay: MTT assay, HeLa; assay type: cell-based; conditions: for IC50: Homo sapiens, MTT assay, HeLa cervix carcinoma, (±s) standard deviation; for Selectivity Index HeLa: IC50 for normal cell line (HDF)/IC50 for HeLa
[5] = test system: HeLa, KB, MCF-7, A-549 and HDF cell lines; assay: MTT assay, statements over several tested cell lines; assay type: cell-based
[6] = test system: HDF (normal fibroblast cell line); assay: MTT assay, HDF; assay type: cell-based, human; conditions: MTT assay, HDF normal fibroblast cell line, (±s) standard deviation
MCF-7 [7] = assay: MTT assay, MCF-7; assay type: cell-based; conditions: for IC50: Homo sapiens, MCF7, MTT assay, MCF-7 breast carcinoma, (±s) standard deviation; for Selectivity Index MCF-7: IC50 for normal cell line (HDF)/IC50 for MCF-7
A-549 = assay: MTT assay, A-549; assay type: cell-based; conditions: for IC50: Homo sapiens, A549, MTT assay, A-549 lung carcinoma, (±s) standard deviation; for Selectivity Index A-549: IC50 for normal cell line (HDF)/IC50 for A-549
KB [8] = assay: MTT assay, KB; assay type: cell-based; conditions: for IC50: Homo sapiens, MTT assay, KB nasopharynx carcinoma, (±s) standard deviation; for Selectivity Index KB: IC50 for normal cell line (HDF)/IC50 for KB
[9] = test system: U-87MG, MCF-7, and HeLa cancer cell lines; assay: Apoptosis assay, all cancer cell lines; assay type: cell-based
Description: The necrosis process induced by all the tested compounds was very small.

[10] = summary over the tested cell lines, read-out: IC50 values for the tested cell lines (range or summary)
[11] = one approximate value or range for the four cancer cell lines, apart from HDF, read-out: IC50 for HeLa, KB, MCF-7, and A-549 cancer cell lines

## COC(=O)C12CCC(C)(C)CC1C1C(=NOC(=O)CCl)CC3C4(C)CCC(OC(C)=O)C(C)(C)C4CCC3(C)C1(C)CC2 (stereo not shown) [8b [22]]
HeLa [1]
  IC50: 9.19 µM
MCF-7 [2]
  IC50: 7.26 µM
KB [3]
  IC50: 9.42 µM

## COC(=O)C12CCC(C)(C)CC1C1C(=NOC(=O)CBr)CC3C4(C)CCC(OC(C)=O)C(C)(C)C4CCC3(C)C1(C)CC2 (stereo not shown) [8c [22]]
HeLa [1]
  IC50: 4.41 µM
MCF-7 [2]
  IC50: 3.76 µM
KB [3]
  IC50: 4.9 µM

## COC(=O)[C@]12CCC(C)(C)CC1C1=CCC3[C@@]4(C)CC/C(=N\OC(=O)c5ccc([N+](=O)[O-])cc5)C(C)(C)C4CC[C@@]3(C)[C@]1(C)CC2 (stereo partly shown) [Compound 5f, 3-(4′-Nitro)benzoxyiminoolean-12-en-28-oic acid methyl ester]
HeLa [4]
  IC50: 62 µM
  Selectivity Index HeLa: 2.13
[5]; [10]
  IC50: 60.7 to 132 µM
[6]; Homo sapiens, Fibroblast
  IC50: 132 µM
MCF-7 [7]
  IC50: 61.4 µM
  Selectivity Index MCF-7: 2.15
A-549
  IC50: 69.9 µM
  Selectivity Index A-549: 1.89
KB [8]
  IC50: 60.7 µM
  Selectivity Index KB: 2.18

## COC(=O)[C@]12CCC(C)(C)CC1C1=CC(=O)C3[C@@]4(C)CC/C(=N\OC(C)=O)C(C)(C)C4CC[C@@]3(C)[C@]1(C)CC2 (stereo partly shown) [Compound 6a, 3-Acetoxyimino-11-oxoolean-12-en-28-oic acid methyl ester]
HeLa [4]
  IC50: 27.4 µM
  Selectivity Index HeLa: 1.79
[5]; [11]
  IC50: ~28 µM
[6]; Homo sapiens, Fibroblast
  IC50: ~49 µM
[6]
  IC50: 49.1 µM
MCF-7 [7]
  IC50: 28 µM
  Selectivity Index MCF-7: 1.75
A-549
  IC50: 28.2 µM
  Selectivity Index A-549: 1.74
KB [8]
  IC50: 27.9 µM
  Selectivity Index KB: 1.76

## COC(=O)[C@]12CCC(C)(C)CC1C1=CC(=O)C3[C@@]4(C)CC/C(=N\OC(=O)CCl)C(C)(C)C4CC[C@@]3(C)[C@]1(C)CC2 (stereo partly shown) [Compound 6b, 3-Chloroacetoxyimino-11-oxoolean12-en-28-oic acid methyl ester]
HeLa [4]
  IC50: 61 µM
  Selectivity Index HeLa: 1.44
[5]; [11]
  IC50: 61 to 64 µM
[6]; Homo sapiens, Fibroblast
  IC50: 88 µM
MCF-7 [7]
  IC50: 64.1 µM
  Selectivity Index MCF-7: 1.37
A-549
  IC50: 61.8 µM
  Selectivity Index A-549: 1.42
KB [8]
  IC50: 61 µM
  Selectivity Index KB: 1.44

## CCC(=O)O/N=C1\CC[C@@]2(C)C(CC[C@]3(C)C2C(=O)C=C2C4CC(C)(C)CC[C@]4(C(=O)OC)CC[C@]23C)C1(C)C (stereo partly shown) [Compound 6c, 3-Propionoxyimino-11-oxoolean-12-en-28-oic acid methyl ester]
HeLa [4]
  IC50: 24 µM
  Selectivity Index HeLa: 2.04
[5]; [11]
  IC50: ~24 µM
[6]; Homo sapiens, Fibroblast
  IC50: ~50 µM
[6]
  IC50: 49 µM
MCF-7 [7]
  IC50: 23 µM
  Selectivity Index MCF-7: 2.13
A-549
  IC50: 24.2 µM
  Selectivity Index A-549: 2.03
KB [8]
  IC50: 24.8 µM
  Selectivity Index KB: 1.97

## COC(=O)[C@]12CCC(C)(C)CC1C1=CC(=O)C3[C@@]4(C)CC/C(=N\OC(=O)c5ccccc5)C(C)(C)C4CC[C@@]3(C)[C@]1(C)CC2 (stereo partly shown) [Compound 6d, 3-Benzoxyimino-11-oxoolean-12-en-28-oic acid methyl ester]
HeLa [4]
  IC50: 28.4 µM
  Selectivity Index HeLa: 1.48
[5]; [11]
  IC50: ~27 µM
[6]; Homo sapiens, Fibroblast
  IC50: ~42 µM
[6]
  IC50: 42 µM
MCF-7 [7]
  IC50: 27.5 µM
  Selectivity Index MCF-7: 1.53
A-549
  IC50: 27.8 µM
  Selectivity Index A-549: 1.51
KB [8]
  IC50: 27.2 µM
  Selectivity Index KB: 1.54

## COC(=O)[C@]12CCC(C)(C)CC1C1=CC(=O)C3[C@@]4(C)CC/C(=N\OC(=O)c5cccc([N+](=O)[O-])c5)C(C)(C)C4CC[C@@]3(C)[C@]1(C)CC2 (stereo partly shown) [Compound 6e, 3-(3′-Nitro)benzoxyimino-11-oxoolean-12-en-28-oic acid methyl ester]
HeLa [4]
  IC50: 71.2 µM
  Selectivity Index HeLa: 1.36
[5]; [11]
  IC50: 70 to 74 µM
[6]; Homo sapiens, Fibroblast
  IC50: ~97 µM
[6]
  IC50: 97 µM
MCF-7 [7]
  IC50: 75 µM
  Selectivity Index MCF-7: 1.29
A-549
  IC50: 74 µM
  Selectivity Index A-549: 1.31
KB [8]
  IC50: 70 µM
  Selectivity Index KB: 1.39

## COC(=O)[C@]12CCC(C)(C)CC1C1=CC(=O)C3[C@@]4(C)CC/C(=N\OC(=O)c5cc([N+](=O)[O-])cc([N+](=O)[O-])c5)C(C)(C)C4CC[C@@]3(C)[C@]1(C)CC2 (stereo partly shown) [Compound 6g, 3-(3′,5′-Dinitro)benzoxyimino-11-oxoolean-12-en-28-oic acid methyl ester]
HeLa [4]
  IC50: 6.11 µM
  Selectivity Index HeLa: 1.19
[9]; 0.1 µg/mL
  increase in induction of apoptosis: 1.7 fold
[9]; 1.0 µg/mL
  increase in induction of apoptosis: 2.4 fold
[9]; 10 µg/mL
  increase in induction of apoptosis: 2.9 fold
[5]; [10]
  IC50: 5.39 to 8.98 µM
[6]; Homo sapiens, Fibroblast
  IC50: 7.27 µM
MCF-7 [7]
  IC50: 6.62 µM
  Selectivity Index MCF-7: 1.10
A-549
  IC50: 5.39 µM
  Selectivity Index A-549: 1.34
KB [8]
  IC50: 8.98 µM
  Selectivity Index KB: 0.81

## CC(=O)O/N=C1\CC[C@@]2(C)C(CC[C@]3(C)C2CC=C2C4CC(C)(C)CC[C@]4(C(=O)N4CCOCC4)CC[C@]23C)C1(C)C (stereo partly shown) [Compound 7a, 3-Acetoxyiminoolean-12-en-28-oic acid morpholide]
HeLa [4]
  IC50: 82.2 µM
  Selectivity Index HeLa: 1.41
[5]; over the tested cell lines
  times less active than mother OA (1): about 8 fold
[5]; [10]
  IC50: ≥ 80 µM
[6]; Homo sapiens, Fibroblast
  IC50: 116 µM
MCF-7 [7]
  IC50: 81 µM
  Selectivity Index MCF-7: 1.43
A-549
  IC50: 84.9 µM
  Selectivity Index A-549: 1.37
KB [8]
  IC50: 81.5 µM
  Selectivity Index KB: 1.42

## CC1(C)CC[C@]2(C(=O)N3CCOCC3)CC[C@]3(C)C(=CCC4[C@@]5(C)CC/C(=N\OC(=O)CCl)C(C)(C)C5CC[C@]43C)C2C1 (stereo partly shown) [Compound 7b, 3-Chloroacetoxyiminoolean12-en-28-oic acid morpholide]
HeLa [4]
  IC50: 19.2 µM
  Selectivity Index HeLa: 2.03
[5]; [10]
  IC50: 15 to 40 µM
[6]; Homo sapiens, Fibroblast
  IC50: 39.1 µM
MCF-7 [7]
  IC50: 15.6 µM
  Selectivity Index MCF-7: 2.50
A-549
  IC50: 19.3 µM
  Selectivity Index A-549: 2.02
KB [8]
  IC50: 19.8 µM
  Selectivity Index KB: 1.97

## CCC(=O)O/N=C1\CC[C@@]2(C)C(CC[C@]3(C)C2CC=C2C4CC(C)(C)CC[C@]4(C(=O)N4CCOCC4)CC[C@]23C)C1(C)C (stereo partly shown) [Compound 7c, 3-Propionoxyimino-olean-12-en-28-oic acid morpholide]
HeLa [4]
  IC50: 143 µM
  Selectivity Index HeLa: 1.27
[5]; [10]
  IC50: 140 to 180 µM
[6]; Homo sapiens, Fibroblast
  IC50: 179 µM
MCF-7 [7]
  IC50: 153 µM
  Selectivity Index MCF-7: 1.17
A-549
  IC50: 148 µM
  Selectivity Index A-549: 1.21
KB [8]
  IC50: 150 µM
  Selectivity Index KB: 1.20

## CC1(C)CC[C@]2(C(=O)N3CCOCC3)CC[C@]3(C)C(=CCC4[C@@]5(C)CC/C(=N\OC(=O)c6ccccc6)C(C)(C)C5CC[C@]43C)C2C1 (stereo partly shown) [Compound 7d, 3-Benzoxyiminoolean-12-en-28-oic acid morpholide]
HeLa [4]
  IC50: 45.3 µM
  Selectivity Index HeLa: 1.46
[5]; [10]
  IC50: 40 to 66 µM
[6]; Homo sapiens, Fibroblast
  IC50: 66.2 µM
MCF-7 [7]
  IC50: 41.7 µM
  Selectivity Index MCF-7: 1.58
A-549
  IC50: 46.8 µM
  Selectivity Index A-549: 1.41
KB [8]
  IC50: 45.9 µM
  Selectivity Index KB: 1.44

## CC1(C)CC[C@]2(C(=O)N3CCOCC3)CC[C@]3(C)C(=CCC4[C@@]5(C)CC/C(=N\OC(=O)c6cccc([N+](=O)[O-])c6)C(C)(C)C5CC[C@]43C)C2C1 (stereo partly shown) [Compound 7e, 3-(3′-Nitro)benzoxyiminoolean-12-en-28-oic acid morpholide]
HeLa [4]
  IC50: 12.1 µM
  Selectivity Index HeLa: 2.32
[5]; summary over the tested cell lines
  IC50 values for the tested cell lines (range or summary): comparable to those of OA (1)
[6]; Homo sapiens, Fibroblast
  IC50: 28 µM
MCF-7 [7]
  IC50: 10.2 µM
  Selectivity Index MCF-7: 2.75
A-549
  IC50: 13.8 µM
  Selectivity Index A-549: 2.03
KB [8]
  IC50: 13.9 µM
  Selectivity Index KB: 2.02

## CC1(C)CC[C@]2(C(=O)N3CCOCC3)CC[C@]3(C)C(=CCC4[C@@]5(C)CC/C(=N\OC(=O)c6ccc([N+](=O)[O-])cc6)C(C)(C)C5CC[C@]43C)C2C1 (stereo partly shown) [Compound 7f, 3-(4′-Nitro)benzoxyiminoolean-12-en-28-oic acid morpholide]
HeLa [4]
  IC50: 60 µM
  Selectivity Index HeLa: 1.42
[5]; [10]
  IC50: 40 to 66 µM
[6]; Homo sapiens, Fibroblast
  IC50: 85.1 µM
MCF-7 [7]
  IC50: 57.2 µM
  Selectivity Index MCF-7: 1.49
A-549
  IC50: 62.9 µM
  Selectivity Index A-549: 1.35
KB [8]
  IC50: 61.5 µM
  Selectivity Index KB: 1.38

## CC1(C)CC[C@]2(C(=O)N3CCOCC3)CC[C@]3(C)C(=CCC4[C@@]5(C)CC/C(=N\OC(=O)c6cc([N+](=O)[O-])cc([N+](=O)[O-])c6)C(C)(C)C5CC[C@]43C)C2C1 (stereo partly shown) [Compound 7g, 3-(3′,5′-Dinitro)benzoxyiminoolean-12-en-28-oic acid morpholide]
HeLa [4]
  IC50: 6.24 µM
  Selectivity Index HeLa: 1.47
[9]; 0.1 µg/mL
  increase in induction of apoptosis: 2.3 fold
[9]; 1.0 µg/mL
  increase in induction of apoptosis: 2.6 fold
[9]; 10 µg/mL
  increase in induction of apoptosis: 3.8 fold
[5]; [10]
  IC50: 4.19 to 8.98 µM
[6]; Homo sapiens, Fibroblast
  IC50: 9.16 µM
MCF-7 [7]
  IC50: 7.27 µM
  Selectivity Index MCF-7: 1.26
A-549
  IC50: 6.52 µM
  Selectivity Index A-549: 1.40
KB [8]
  IC50: 6.01 µM
  Selectivity Index KB: 1.52
